Reference: the NIST ThermoML archive (doi:10.1016/j.jct.2010.08.002)
Numbers after ± are expanded uncertainties.

Settings: for mass density: Liquid

Row | SMILES | surface tension liquid-gas (293.15 K) | mass density (293.15 K) | surface tension liquid-gas (298.15 K) | mass density (298.15 K) | surface tension liquid-gas (303.15 K) | mass density (303.15 K) | surface tension liquid-gas (308.15 K) | mass density (308.15 K) | surface tension liquid-gas (313.15 K) | mass density (313.15 K) | surface tension liquid-gas (318.15 K) | mass density (318.15 K) | surface tension liquid-gas (323.15 K) | mass density (323.15 K) | surface tension liquid-gas (328.15 K) | mass density (328.15 K) | surface tension liquid-gas (333.15 K) | mass density (333.15 K) | surface tension liquid-gas (338.15 K) | mass density (338.15 K)
1 | CCOP(=O)([O-])OCC.CCn1cc[n+](C)c1 [1-ethyl-3-methylimidazolium diethyl phosphate] | 36.1 ± 1.3 mN/m | 1141.3 ± 3.9 kg/m3 | 35.88 ± 1.3 mN/m | 1140 ± 3.9 kg/m3 | 35.43 ± 1.3 mN/m | 1132.1 ± 3.8 kg/m3 | 35.3 ± 1.3 mN/m | 1129.7 ± 3.7 kg/m3 | 35.07 ± 1.3 mN/m | 1125.1 ± 3.7 kg/m3 | 34.61 ± 1.2 mN/m | 1120.4 ± 3.6 kg/m3 | 34.55 ± 1.2 mN/m | 1118 ± 3.5 kg/m3 | 34.21 ± 1.2 mN/m | 1112.9 ± 3.5 kg/m3 | 33.88 ± 1.2 mN/m | 1111.1 ± 3.4 kg/m3 | 33.75 ± 1.2 mN/m | 1108 ± 3 kg/m3
2 | COP(=O)([O-])OC.Cn1cc[n+](C)c1 [1,3-dimethylimidazolium dimethylphosphate] | 47.42 ± 1.6 mN/m | 1244 ± 5.7 kg/m3 | 47.09 ± 1.6 mN/m | 1242 ± 5.7 kg/m3 | 47.11 ± 1.6 mN/m | 1238.7 ± 5.6 kg/m3 | 46.28 ± 1.6 mN/m | 1234.9 ± 5.5 kg/m3 | 45.11 ± 1.6 mN/m | 1229.7 ± 5.5 kg/m3 | 44.44 ± 1.6 mN/m | 1226.8 ± 5.4 kg/m3 | 43.01 ± 1.5 mN/m | 1223.9 ± 5.4 kg/m3 | 42.58 ± 1.5 mN/m | 1218.5 ± 5.3 kg/m3 | 41.88 ± 1.5 mN/m | 1214.8 ± 5.2 kg/m3 | 41.33 ± 1.4 mN/m | 1210.4 ± 5.1 kg/m3
